For experiment [1], the system named is IL3000 T. congolense (drug sensitive) strain. The experiment is described as follows: In vitro Alamar Blue 72 h drug sensitivity assay for T. congolense. The following applies: Trypanosoma congolense, 72 h, bloodstream form, 69 h + 3 h Resazurin, 34° C., read-out: IC50: I Org. Growth T. congolense 3 d. It is filed as cell-based, Trypanosoma congolense. Put shortly:
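IC50 values derive from 11-point curves averaged over at least three independent runs, with fluorescence read at 536 nm excitation and 588 nm emission. Resazurin was added for a final 3 h after 69 h compound exposure of bloodstream forms (HMI medium, 20% bovine serum, 34° C, 5% CO2).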

Experiment [2] has as its system T. cruzi amastigote (Td Tomato-modified) in Vero cells. The experiment in a line: In vitro IC50 measurement of T. cruzi amastigote killing using Td Tomato-modified T. cruzi. It is filed as cell-based. The following applies: Trypanosoma cruzi, 72 h, fluorescence, read-out: IC50: I Org. amastigote Growth T. cruzi 3 d. Put shortly: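 IC50/IC90 came from nonlinear regression of Day 3 minus Day 0 fluorescence (544/612 nm), correcting for input parasites. Final compound concentrations spanned 5 nM–5 uM on Td Tomato T. cruzi-infected Vero cells, 72 h at 37 °C.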

Broadly, the IC50 is the concentration that gives 50% inhibition.

SMILES strings stand for the structures.

`Cc1c(C(=O)N[C@H](C(=O)OCCN2CC(C)OC(C)C2)C(C)C)ccc2c1B(O)OC2` (stereo partly drawn) [Example 6-206, 2-(2,6-dimethylmorpholino)ethyl (1-hydroxy-7-methyl-1,3-dihydrobenzo[c][1,2]oxaborole-6-carbonyl)-L-valinate]: the half-inhibitory concentration (IC50) in experiment [1] was below 0.5 nM; in experiment [2] it was 21 to 999 nM.

For `Cc1c(C(=O)N[C@H](C(=O)OCc2cccc(N3CCN(C)CC3)n2)C(C)C)ccc2c1B(O)OC2` [Example 6-201, (6-(4-methylpiperazin-1-yl)pyridin-2-yl)methyl (1-hydroxy-7-methyl-1,3-dihydrobenzo[c][1,2]oxaborole-6-carbonyl)-L-valinate], the figures for the IC50 in experiment [1] and in experiment [2] were below 0.5 nM and 21 to 999 nM, respectively.

For the compound `Cc1c(C(=O)N[C@H](C(=O)OC2CCC(F)(F)CC2)C(C)C)ccc2c1B(O)OC2` [Example 6-155, 4,4-Difluorocyclohexyl (1-hydroxy-7-methyl-1,3-dihydrobenzo[c][1,2]oxaborole-6-carbonyl)-L-valinate], the IC50 in experiment [1] is below 0.5 nM; in experiment [2] it was at most 20 nM.

For `Cc1c(C(=O)N[C@H](C(=O)OC2CCNCC2)C(C)C)ccc2c1B(O)OC2` [Example 6-146, Piperidin-4-yl (1-hydroxy-7-methyl-1,3-dihydrobenzo[c][1,2]oxaborole-6-carbonyl)-L-valinate], the IC50 in experiment [1] was 10 to 5000 nM; in experiment [2], at least 1000 nM.

Take `Cc1c(C(=O)N[C@H](C(=O)OCC2CCC(F)(F)CC2)C(C)C)ccc2c1B(O)OC2` [Example 6-154, (4,4-Difluorocyclohexyl)methyl (1-hydroxy-7-methyl-1,3-dihydrobenzo[c][1,2]oxaborole-6-carbonyl)-L-valinate]: the IC50 was below 0.5 nM in experiment [1] and at most 20 nM in experiment [2].

`CCc1c(C(=O)N[C@H](C(=O)OCc2ccccc2)C(C)C)ccc2c1B(O)OC2` [Example 6-053, Benzyl (7-ethyl-1-hydroxy-1,3-dihydrobenzo[c][1,2]oxaborole-6-carbonyl)-L-valinate]: the IC50 in experiment [1] was below 0.5 nM; in experiment [2], 21 to 999 nM.

`Cc1c(C(=O)N[C@H](C(=O)OCc2ccnc(C(F)(F)F)n2)C(C)C)ccc2c1B(O)OC2` [Example 6-160, (2-(Trifluoromethyl)pyrimidin-4-yl)methyl (1-hydroxy-7-methyl-1,3-dihydrobenzo[c][1,2]oxaborole-6-carbonyl)-L-valinate]: the results for the IC50 in experiment [1] and in experiment [2] were below 0.5 nM and 21 to 999 nM, respectively.

Consider `CC(C)[C@H](NC(=O)c1ccc2c(c1)B(O)OC2)C(=O)O[C@H](C)c1ccccc1` [Example 6-020, (R)-1-Phenylethyl (1-hydroxy-1,3-dihydrobenzo[c][1,2]oxaborole-6-carbonyl)-L-valinate], for which the IC50 was 10 to 5000 nM in experiment [1] and at least 1000 nM in experiment [2].

As to `Cc1c(C(=O)N[C@H](C(=O)OCCN2CCOCC2C)C(C)C)ccc2c1B(O)OC2` (stereo partly drawn) [Example 6-219, 2-(3-methylmorpholino)ethyl (1-hydroxy-7-methyl-1,3-dihydrobenzo[c][1,2]oxaborole-6-carbonyl)-L-valinate], the IC50 in experiment [1] is below 0.5 nM; in experiment [2], 21 to 999 nM.

Take `O=C(N[C@@H](Cc1ccccc1)C(=O)OCc1ccccc1)c1ccc2c(c1)B(O)OC2` [Example 6-009, Benzyl (1-hydroxy-1,3-dihydrobenzo[c][1,2]oxaborole-6-carbonyl)-L-phenylalaninate]: the figures for the IC50 in experiment [1] and in experiment [2] were 0.51 to 9.99 nM and at least 1000 nM, respectively.

For `Cc1c(C(=O)N[C@H](C(=O)OCc2nccs2)C(C)C)ccc2c1B(O)OC2` [Example 6-124, Thiazol-2-ylmethyl (1-hydroxy-7-methyl-1,3-dihydrobenzo[c][1,2]oxaborole-6-carbonyl)-L-valinate], the results for the IC50 in experiment [1] and in experiment [2] were below 0.5 nM and 21 to 999 nM, respectively.

On to `Cc1c(C(=O)N[C@H](C(=O)OCc2ccc(F)cc2)C2CC2)ccc2c1B(O)OC2` [Example 6-050, 4-Fluorobenzyl (S)-2-cyclopropyl-2-(1-hydroxy-7-methyl-1,3-dihydrobenzo[c][1,2]oxaborole-6-carboxamido)acetate], for which the IC50 in experiment [1] is below 0.5 nM; in experiment [2] it was 21 to 999 nM.

`COCC(COC)OC(=O)[C@@H](NC(=O)c1ccc2c(c1C)B(O)OC2)C(C)C` [Example 6-139, 1,3-Dimethoxypropan-2-yl (1-hydroxy-7-methyl-1,3-dihydrobenzo[c][1,2]oxaborole-6-carbonyl)-L-valinate]: the IC50 in experiment [1] lay in the range of 10 to 5000 nM; in experiment [2], 21 to 999 nM.

For the compound `C[C@H](NC(=O)c1ccc2c(c1)B(O)OC2)C(=O)O` [Example 6-164, (1-Hydroxy-1,3-dihydrobenzo[c][1,2]oxaborole-6-carbonyl)-L-alanine], the IC50 is 10 to 5000 nM in experiment [1] and at least 1000 nM in experiment [2].

`Cc1c(C(=O)N[C@H](C(=O)OCc2ccc(F)c(OCCN3CCCC3)c2)C(C)C)ccc2c1B(O)OC2` [Example 6-245, 4-Fluoro-3-(2-(pyrrolidin-1-yl)ethoxy)benzyl (1-hydroxy-7-methyl-1,3-dihydrobenzo[c][1,2]oxaborole-6-carbonyl)-L-valinate]: the values for the IC50 in experiment [1] and in experiment [2] were 0.51 to 9.99 nM and 21 to 999 nM, respectively.

For `NC(=O)C[C@H](NC(=O)c1ccc2c(c1)B(O)OC2)C(=O)OCc1ccccc1` [Example 6-010, Benzyl (1-hydroxy-1,3-dihydrobenzo[c][1,2]oxaborole-6-carbonyl)-L-asparaginate], the IC50 is 10 to 5000 nM in experiment [1] and at least 1000 nM in experiment [2].

With `Cc1c(C(=O)N[C@H](C(=O)OCc2cc(F)cc(F)c2)C(C)(C)O)ccc2c1B(O)OC2` [Example 6-099, 3,5-Difluorobenzyl (S)-3-hydroxy-2-(1-hydroxy-7-methyl-1,3-dihydrobenzo[c][1,2]oxaborole-6-carboxamido)-3-methylbutanoate], the IC50 in experiment [1] was below 0.5 nM; in experiment [2] it was 21 to 999 nM.

For the compound `CCCc1c(C(=O)N[C@H](C(=O)OCc2ccccc2)C(C)C)ccc2c1B(O)OC2` [Example 6-065, Benzyl (1-hydroxy-7-propyl-1,3-dihydrobenzo[c][1,2]oxaborole-6-carbonyl)-L-valinate], the IC50 in experiment [1] is 0.51 to 9.99 nM; in experiment [2] it was 21 to 999 nM.

In the case of `Cc1c(C(=O)N[C@H](C(=O)OC2CCCCC2)C(C)C)ccc2c1B(O)OC2` [Example 6-133, Cyclohexyl (1-hydroxy-7-methyl-1,3-dihydrobenzo[c][1,2]oxaborole-6-carbonyl)-L-valinate], the figures for the IC50 in experiment [1] and in experiment [2] were below 0.5 nM and at most 20 nM, respectively.

With `Cc1c(C(=O)NC(C(=O)OCc2ccc(F)cc2)C(C)(C)F)ccc2c1B(O)OC2` (centres unmarked) [Example 6-091, 4-Fluorobenzyl 3-fluoro-2-(1-hydroxy-7-methyl-1,3-dihydrobenzo[c][1,2]oxaborole-6-carboxamido)-3-methylbutanoate], the IC50 in experiment [1] was below 0.5 nM; in experiment [2], at most 20 nM.

`Cc1c(C(=O)N[C@H](C(=O)OCc2cccc(CN3CCCC3)c2)C(C)C)ccc2c1B(O)OC2` [Example 6-113, 3-(Pyrrolidin-1-ylmethyl)benzyl (1-hydroxy-7-methyl-1,3-dihydrobenzo[c][1,2]oxaborole-6-carbonyl)-L-valinate]: the IC50 was below 0.5 nM in experiment [1] and at most 20 nM in experiment [2].

On to `Cc1c(C(=O)N[C@H](C(=O)OCc2ccc(C(=O)N3CCNCC3)cc2)C(C)C)ccc2c1B(O)OC2` [Example 6-102, 4-(Piperazine-1-carbonyl)benzyl (1-hydroxy-7-methyl-1,3-dihydrobenzo[c][1,2]oxaborole-6-carbonyl)-L-valinate], for which the IC50 is 10 to 5000 nM in experiment [1] and at least 1000 nM in experiment [2].

As to `Cc1c(C(=O)N[C@H](C(=O)OCc2cc(F)c(F)c(F)c2)C(C)C)ccc2c1B(O)OC2` [Example 6-100, 3,4,5-Trifluorobenzyl (1-hydroxy-7-methyl-1,3-dihydrobenzo[c][1,2]oxaborole-6-carbonyl)-L-valinate], the IC50 in experiment [1] was below 0.5 nM; in experiment [2], at most 20 nM.

Consider `CC(C)(C)[C@H](NC(=O)c1ccc2c(c1)B(O)OC2)C(=O)OCc1ccccc1` [Example 6-017, Benzyl (S)-2-(1-hydroxy-1,3-dihydrobenzo[c][1,2]oxaborole-6-carboxamido)-3,3-dimethylbutanoate], for which the results for the IC50 in experiment [1] and in experiment [2] were 10 to 5000 nM and at least 1000 nM, respectively.

For `Cc1c(C(=O)N[C@H](C(=O)OCc2ccc(F)cc2)[C@@H](C)OCc2ccccc2)ccc2c1B(O)OC2` [Example 6-077, 4-Fluorobenzyl O-benzyl-N-(1-hydroxy-7-methyl-1,3-dihydrobenzo[c][1,2]oxaborole-6-carbonyl)-L-threoninate], the results for the IC50 in experiment [1] and in experiment [2] were 0.51 to 9.99 nM and at most 20 nM, respectively.

Regarding `CSCC[C@H](NC(=O)c1ccc2c(c1)B(O)OC2)C(=O)OCc1ccccc1` [Example 6-008, Benzyl (1-hydroxy-1,3-dihydrobenzo[c][1,2]oxaborole-6-carbonyl)-L-methioninate], the IC50 lay within 0.51 to 9.99 nM in experiment [1] and 21 to 999 nM in experiment [2].

Take `Cc1c(C(=O)N[C@H](C(=O)OCC2CCCC2)C(C)(C)O)ccc2c1B(O)OC2` [Example 6-228, Cyclopentylmethyl (S)-3-hydroxy-2-(1-hydroxy-7-methyl-1,3-dihydrobenzo[c][1,2]oxaborole-6-carboxamido)-3-methylbutanoate]: the results for the IC50 in experiment [1] and in experiment [2] were below 0.5 nM and 21 to 999 nM, respectively.

As for `Cc1c(C(=O)N[C@H](C(=O)OCCC(C)(C)O)C(C)C)ccc2c1B(O)OC2` [Example 6-209, 3-hydroxy-3-methylbutyl (1-hydroxy-7-methyl-1,3-dihydrobenzo[c][1,2]oxaborole-6-carbonyl)-L-valinate], the IC50 in experiment [1] lay in the range of 0.51 to 9.99 nM; in experiment [2], 21 to 999 nM.

For the origin of these results see US11578087B2, “Oxaborole esters and uses thereof” (priority 2016, dated 2023).
